According to patent US10273208B2, “Screening methods for the binding affinity of chemical entities to biological molecules and NEDD4-1 inhibitors identified by the screening methods” (Northwestern University, priority 2014, dated 2019):

Test system: not listed separately
Assay: NMR rate studies: pseudo-first order reaction with N-acetylcysteine methyl ester
Assay type: physicochemical
Conditions: electrophile 10 mM, N-acetyl cysteine methyl ester 78 mM, 2:1 deuterated PBS:DMSO-d6, pD 8, NMR
Text: We further validated the utility of electrophile 3 as a thiol-reactive tether by making a library of one hundred structurally diverse drug-like fragments 6-105 containing this electrophile. The library was constructed with an HBTU amide coupling with commercially available carboxylic acid fragments (FIG. 2A). The acids were selected with “rule of three” criteria^15 and a subsequent diversity analysis. We measured the reaction rates for the first fifty fragments to confirm that this library would have balanced cysteine reactivity and could be used for irreversible tethering (FIG. 2B).
N-Acetyl cysteine methyl ester was dissolved in 2:1 deuterated PBS:DMSO-d6 (78 mM) with 10 mM CH2Cl2 as an internal standard. The electrophile (10 mM) was then added immediately prior to acquiring spectra. H1 spectra were taken every 30 s for 30 min (or every 4 s for 5 min for highly reactive compounds 1c and 2a-c). The integrals of the vinyl peaks were used to determine the concentration of the electrophile over time. The natural logarithm of the concentration of the electrophile versus time was then plotted using GraphPad Prism software. The linear slope of this plot was used to determine the pseudofirst order rate constant. Deuterated PBS recipe: 20 mM Na3PO4, 50 mM NaCl in D2O was adjusted to pD 8 with DC1 solution.

Row | SMILES | k pseudo-first order [s⁻¹]
1 | COC(=O)/C=C/CNC(=O)c1c(C)[nH]c2ccc(OC)cc12 [Compound 12, Methyl(E)-4-(5-methoxy-2-methyl-1H-indole-3-carboxamido)but-2-enoate] | 0.000654
2 | COC(=O)/C=C/CNC(=O)c1c[nH]c2ccc(OC)cc12 [Compound 13, Methyl(E)-4-(5-methoxy-1H-indole-3-carboxamido)but-2-enoate] | 0.0003582
3 | CCn1c(C)c(C(=O)NC/C=C/C(=O)OC)c2cc(OC)ccc21 [Compound 14, Methyl(E)-4-(1-ethyl-5-methoxy-2-methyl-1H-indole-3-carboxamido)but-2-enoate] | 0.0005016
4 | COC(=O)/C=C/CNC(=O)C1CC(=O)N(C)c2ccccc21 (stereo not shown) [Compound 15] | 0.0007733
5 | COC(=O)/C=C/CNC(=O)C1Cc2ccccc2CN1C (stereo not shown) [Compound 16] | 0.0006414
6 | COC(=O)/C=C/CNC(=O)c1sc(C(C)C)nc1C [Compound 17] | 0.0006156
7 | CCC(C(=O)NC/C=C/C(=O)OC)N1Cc2ccccc2C1=O (stereo not shown) [Compound 18] | 0.0006093
8 | COC(=O)/C=C/CNC(=O)CN(C)C1CCCC1 [Compound 20] | 0.0005603
9 | COC(=O)/C=C/CNC(=O)Cn1ncc2ccccc21 [Compound 21] | 0.0003327
10 | COC(=O)/C=C/CNC(=O)c1ccc(-c2ccc(C)o2)cc1 [Compound 23] | 0.0004979
11 | COC(=O)/C=C/CNC(=O)c1cnn(-c2ccccc2OC)c1 [Compound 24] | 0.0005202
12 | COC(=O)/C=C/CNC(=O)Cc1ccncc1 [Compound 25] | 0.0005202
13 | COC(=O)/C=C/CNC(=O)C1COc2c(cccc2OC)C1 (stereo not shown) [Compound 26] | 0.0006107
14 | COC(=O)/C=C/CNC(=O)c1cc(C)nc2ccc(C)cc12 [Compound 27] | 0.0006665
15 | COC(=O)/C=C/CNC(=O)c1ccc(OC)cc1 [Compound 28] | 0.00042
16 | COC(=O)/C=C/CNC(=O)c1ccnc(C)c1 [Compound 29] | 0.0004038
17 | COC(=O)/C=C/CNC(=O)c1ccc(CN2CCc3ccccc3C2)cc1 [Compound 30] | 0.0006579
18 | COC(=O)/C=C/CNC(=O)[C@@H]1CCCN1C(=O)C1CC1 [Compound 31] | 0.0005193
19 | COC(=O)/C=C/CNC(=O)c1cccc(Cl)n1 [Compound 33] | 0.0006348
20 | COC(=O)/C=C/CNC(=O)c1ccccc1Br [Compound 34] | 0.0007717
21 | COC(=O)/C=C/CNC(=O)c1cc(Br)ccc1N [Compound 35] | 0.0005755

Row | SMILES | k pseudo-first order [s⁻¹]
22 | COC(=O)/C=C/CNC(=O)C(CO)c1ccccc1 (stereo not shown) [Compound 36] | 0.00034
23 | COC(=O)/C=C/CNC(=O)Cn1nc(C)cc1C [Compound 37] | 0.0004493
24 | COC(=O)/C=C/CNC(=O)c1cc(Br)ccc1OC [Compound 38] | 0.0007728
25 | CCC(C(=O)NC/C=C/C(=O)OC)n1cccn1 (stereo not shown) [Compound 39] | 0.000651
26 | C=CCN1CC(C(=O)NC/C=C/C(=O)OC)CC1=O (stereo not shown) [Compound 40] | 0.0004793
27 | COC(=O)/C=C/CNC(=O)c1c(C)[nH]c2c1C(=O)CCC2 [Compound 41] | 0.0005635
28 | COC(=O)/C=C/CNC(=O)Cc1c(C)nn(-c2ccccc2)c1C [Compound 42] | 0.0005281
29 | COC(=O)/C=C/CNC(=O)c1c(C)n(C)c2ccc(OC)cc12 [Compound 43] | 0.0007616
30 | COC(=O)/C=C/CNC(=O)c1cc2c([nH]c1=O)CCCC2 [Compound 44] | 0.0006746
31 | COC(=O)/C=C/CNC(=O)c1c(C)nc2cc(C)ccn12 [Compound 45] | 0.0003961
32 | CCn1nc(C(C)C)cc1C(=O)NC/C=C/C(=O)OC [Compound 46] | 0.0007806
33 | COC(=O)/C=C/CNC(=O)c1c[nH]nc1-c1cccc(F)c1 [Compound 47] | 0.0006539
34 | COC(=O)/C=C/CNC(=O)C(C)n1cnc2ccccc21 (stereo not shown) [Compound 48] | 0.000468
35 | COC(=O)/C=C/CNC(=O)c1cnn(Cc2ccccc2)c1 [Compound 49] | 0.0004975
36 | COC(=O)/C=C/CNC(=O)c1n[nH]cc1Br [Compound 50] | 0.0006514
37 | COC(=O)/C=C/CNC(=O)c1ccccc1N(C)C(=O)c1ccco1 [Compound 51] | 0.0005048
38 | COC(=O)/C=C/CNC(=O)c1cc(C2CC2)nc2ccccc12 [Compound 52] | 0.0005984
39 | COC(=O)/C=C/CNC(=O)c1ccc(Cl)cn1 [Compound 53] | 0.0005521
40 | COC(=O)/C=C/CNC(=O)CNC(=O)c1ccccc1Br [Compound 54] | 0.0005048
41 | COC(=O)/C=C/CNC(=O)Cn1c(=O)cc(C)c2ccccc21 [Compound 55] | 0.000452

Molecular target: T1, human rhinovirus 3C protease (GST-HRV3C, PreScission protease) (Human rhinovirus 14, UniProt P03303)
T1 construct: made in house; host or cells: E. coli Rosetta (DE3)pLysS
T1 sequence (P03303 1538-1719, added parts left off): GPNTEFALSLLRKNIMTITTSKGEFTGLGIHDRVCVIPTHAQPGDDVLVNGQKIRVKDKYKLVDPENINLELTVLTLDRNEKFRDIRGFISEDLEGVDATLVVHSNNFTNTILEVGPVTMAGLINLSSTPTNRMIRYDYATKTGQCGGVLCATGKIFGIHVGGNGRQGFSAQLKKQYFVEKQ
Assay: Irreversible tethering counter-screen (ESI-MS) against HRV3C protease
Assay type: binding
Conditions: mixtures of ten fragments 100 μM each, 1 h
Description: FIG. 28A, FIG. 28B, FIG. 28C and FIG. 28D. Counterscreen of compound 6 against the deubiquitinase USPO8 and Human Rhinovirus (HRV) 3C protease, both of which have catalytic cysteines. Compound 6 at 100 μM in 1% DMSO was incubated with the catalytic domain of the indicated cysteine protease (10 μM) for 1 h, followed by gel filtration and whole protein ESI-MS.
To further test the specificity of the developed irreversible tethering system, we conducted a counter-screen of the same set of 100 compounds (10 mixtures of 10 compounds each) against three other enzymes: human rhinovirus 3C protease, the deubiquitinase USP08, and the E2 ubiquitin-conjugating enzyme UbcH7. […] The molecular weight of GST-HRV3C protease is 47566.72 Da and its amino acid sequence is provided as (SEQ ID NO:2).
10 μM of papain (Sigma P4762), UbcH7 (recombinantly expressed) or USPO8 (recombinantly expressed) in 50 mM HEPES 150 mM NaCl 0.1 mM EDTA pH 7.5 was treated with a mixture of ten fragments (Table S2) (10 mM DMSO stock solutions, final concentrations: 100 μM of each fragment, and 1% DMSO). The reaction mixture was incubated for 1 h or 4 h at 23° C. before being passed through Zeba gel filtration columns (Thermo, 7K MWCO) to remove unreacted fragments. The protein solution was then immediately analyzed by whole protein LC/ESI-MS.
Accurate-mass data were obtained on an Agilent 6210A LC-TOF mass spectrometer in positive ion mode using electrospray ionization. Samples were chromatographed on the LC-TOF instrument using a Poroshell 120 EC-C18 HPLC column (2.1*50 mm, 2.7 micron), an Agilent Series 1200 HPLC binary pump, and an Agilent Series 1200 autoinjector. The HPLC column was held at 45° C. and the autosampler was held at 8° C. Mobile Phase A was a solution of 0.1% formic acid in water:acetonitrile (19:1). Mobile Phase B was a solution of 0.1% formic acid in acetonitrile. The flow rate was set to 250 μL/min. The gradient used was 0% B for 2 minutes, ramping linearly to 90% B from 2 minutes to 5 minutes, holding at 90% B from 5 minutes to 7 minutes, and then returning to 0% B at 7.1 minutes. […]

Row | SMILES | labeling of HRV3C protease [%]
42 | COC(=O)/C=C/CNC(=O)c1cc2cc(Cl)cc(OC)c2o1 [Compound 98] | ~20

Molecular target: T2, NEDD4-1 HECT domain (Homo sapiens, UniProt P46934)
T2 construct: to elute NEDD4-1 HECT domain (50 mM HEPES, 150 mM NaCl, 0.1 mM EDTA 1 mM DTT); GST (N, cleaved yes); made in house; host or cells: E. coli BL21
T2 sequence (P46934 with tags, fused parts or gaps): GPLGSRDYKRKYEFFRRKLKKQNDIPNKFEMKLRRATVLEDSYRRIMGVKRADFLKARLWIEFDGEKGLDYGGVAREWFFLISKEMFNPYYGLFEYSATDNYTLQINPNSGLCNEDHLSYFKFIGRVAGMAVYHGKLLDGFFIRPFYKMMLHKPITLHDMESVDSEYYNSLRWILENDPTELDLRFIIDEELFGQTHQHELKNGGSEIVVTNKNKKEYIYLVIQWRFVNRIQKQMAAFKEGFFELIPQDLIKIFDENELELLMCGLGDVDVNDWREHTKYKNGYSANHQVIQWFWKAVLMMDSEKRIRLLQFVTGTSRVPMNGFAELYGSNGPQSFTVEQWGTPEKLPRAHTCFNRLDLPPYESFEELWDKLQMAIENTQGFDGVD
Assay: Covalent labeling of NEDD4-1 HECT domain (gel filtration, whole protein ESI-MS)
Assay type: binding
Conditions: compound 100 μM, NEDD4-1 HECT 10 μM, 4 h
Description: 10 μM of NEDD4-1 HECT domain in 50 mM HEPES 150 mM NaCl 0.1 mM EDTA 1 mM DTT pH 7.5 was treated with a mixture of ten fragments (from 10 mM each DMSO stock solution mixtures; final concentrations: 100 μM of each fragment, and 1% DMSO). Fragment structures and mixture compositions were the same as reported previously. The reaction mixture was incubated for 4 h at 23° C. before being passed through Zeba gel filtration columns (Thermo, 7K MWCO) to remove unreacted fragments. The protein solution was then immediately analyzed by whole protein LC/ESI-MS.
Accurate-mass data were obtained on an Agilent 6210A LC-TOF mass spectrometer in positive ion mode using electrospray ionization. Samples were chromatographed on the LC-TOF instrument using a Poroshell 120 EC-C18 HPLC column (2.1*50 mm, 2.7 micron), an Agilent Series 1200 HPLC binary pump, and an Agilent Series 1200 autoinjector. The HPLC column was held at 45° C. and the autosampler was held at 8° C. Mobile Phase A was a solution of 0.1% formic acid in water:acetonitrile (19:1). Mobile Phase B was a solution of 0.1% formic acid in acetonitrile. The flow rate was set to 250 μL/min. The gradient used was 0% B for 2 minutes, ramping linearly to 90% B from 2 minutes to 5 minutes, holding at 90% B from 5 minutes to 7 minutes, and then returning to 0% B at 7.1 minutes. The column was allowed to equilibrate for 2.7 minutes before the next injection was initiated. The eluent from the column was diverted to waste for the first 2 minutes. The spectra were acquired from 301 to 3200 daltons using a gas temperature of 340° C., a gas flow of 7 liters/min, and the nebulizer gas at 35 psi. The following voltages were used: capillary 4200 V, fragmentor 230V, skimmer 64V, and octapole RF peak 250V. Spectra were acquired at a rate of 1 spectra/sec. The data was processed using MassHunter software version B.02.00. Maximum entropy deconvolutions were performed with a Mass Step of 1, S/N Threshold of 30, Average Mass at 90% of Peak Height, and 5 Charge States Minimum.
10 μM of NEDD4-1 HECT domain in 50 mM HEPES 150 mM NaCl 0.1 mM EDTA 1 mM DTT pH 7.5 was treated with 1 mM of inhibitor 1 or 2 (from 100 mM DMSO stock solution; final concentrations: 1 mM of inhibitor, 1% DMSO, and 0.2% CHAPS to solubilize the inhibitors at 1 mM). The reaction mixture was incubated for 4 h at 23° C. before being passed through Zeba gel filtration columns (Thermo, 7K MWCO) to remove unreacted inhibitor. The protein solution was then immediately used for crystallization or enzymatic assay.

Row | labeling of NEDD4-1 HECT domain (qualitative) | SMILES
43 | did not label NEDD4-1 | CCOc1ccc2c(c1)c(C(=O)NC/C=C/C(=O)OC)c(C)n2C [Compound 10, Methyl(E)-4-(5-ethoxy-1,2-dimethyl-1H-indole-3-carboxamido)but-2-enoate]
